assay: method code SF-AS, from DOI: 10.1897/1552-8618(1992)11[901:aapohp]2.0.co;2

SMILES | logP
CC(=O)Nc1cc(C(F)(F)F)c(F)cc1F | 2.34
COc1cccc(OC)c1C(N)=O | -0.22
CC(=O)Nc1cc(C(F)(F)F)cc(C(F)(F)F)c1Br | 3.51
NC(=O)c1c(Cl)cccc1[N+](=O)[O-] | 0.12
CC(=O)Nc1cc(C(F)(F)F)c(Cl)cc1Cl | 3.24
CC(=O)Nc1c(C(C)C)cccc1C(C)C | 2.41
CC(=O)Nc1cc(C(F)(F)F)c(Cl)cc1F | 3.02
CC(=O)Nc1ccc(Cl)c(C(F)(F)F)c1 | 3.33
COc1c(Cl)cccc1NC(C)=O | 1.68
CC(=O)Nc1ccc(Cl)c(Cl)c1Cl | 2.88
CC(=O)Nc1cc(Cl)cc(C(F)(F)F)c1F | 3.15
Cc1cccc(C)c1C(N)=O | 0.9
CC(=O)Nc1ccc(Cl)cc1F | 1.91
CC(=O)Nc1c(C)cccc1Cl | 1.22
COc1cccc(NC(C)=O)c1C | 1.13
CCCCc1ccc(NC(C)=O)c([N+](=O)[O-])c1 | 3.1
NC(=O)c1ccccc1I | 0.93
CC(=O)Nc1cc(C)ccc1C | 1.47
CC(=O)Nc1cccc(Cl)c1C | 1.82
CC(=O)Nc1ccccc1F | 1.03
CC(=O)Nc1ccc(Cl)cc1C(F)(F)F | 1.98
COc1c(C)cccc1C | 3.02

SMILES | logP
CC(=O)Nc1cccc([N+](=O)[O-])c1 | 1.47
CC(=O)Nc1cc(C)cc(C)c1 | 2.17
CC(=O)Nc1cc(C(F)(F)F)cc(Cl)c1Cl | 3.27
CCCCc1ccc(NC(C)=O)c(C)c1 | 3.1
COc1cccc([N+](=O)[O-])c1C(N)=O | -0.26
CCc1cccc(CC)c1NC(C)=O | 1.85
CC(=O)Nc1c(C)cc(C)cc1[N+](=O)[O-] | 1.18
CC(=O)Nc1cc(C)c(C)c(C)c1 | 2.5
CC(=O)Nc1c(C)cccc1[N+](=O)[O-] | 0.61
CCCc1cc(NC(C)=O)ccc1OC | 2.72
CC(=O)Nc1cc(Cl)cc(Cl)c1 | 3.17
CCc1ccccc1C(N)=O | 1.17
CCCCc1ccc(NC(C)=O)cc1 | 3.3
CC(C)c1ccccc1C(N)=O | 1.39
CC(=O)Nc1cc(Cl)cc(C(F)(F)F)c1Cl | 3.27
Cc1ccccc1C(N)=O | 0.76
CC(=O)Nc1c(F)cccc1F | 0.69
CC(=O)Nc1cc(C(F)(F)F)ccc1F | 2.24
COc1c(C)cccc1NC(C)=O | 1.28
O=[N+]([O-])c1cc(C(F)(F)F)cc([N+](=O)[O-])c1Cl | 2.5
CC(=O)Nc1cc(Cl)ccc1Cl | 2.19
COc1cccc(OC)c1C | 2.87

SMILES | logP
NC(=O)c1ccccc1C(F)(F)F | 0.68
CC(=O)Nc1cccc(C)c1C | 1.35
CC(=O)Nc1c(F)c(F)c(F)c(F)c1F | 1.7
CC(=O)Nc1c(Cl)cccc1Cl | 1.32
CC(=O)Nc1ccc(C)c(Cl)c1 | 2.69
COc1ccc(NC(C)=O)c([N+](=O)[O-])c1 | 1.09
CCc1cccc(C)c1NC(C)=O | 1.41
CC(=O)Nc1cc(C(F)(F)F)cc(C(F)(F)F)c1 | 3.72
NC(=O)c1c(F)cccc1Cl | 0.49
CCc1cccc(C(C)C)c1NC(C)=O | 2.1
CC(=O)Nc1cccc(Cl)c1F | 1.83
CCCCc1ccc(NC(C)=O)cc1C | 3.64
COc1ccc(OC)c(Cl)c1 | 2.69
CC(=O)Nc1ccccc1Oc1ccccc1 | 2.37
CC(=O)Nc1cc(Cl)c(F)c(Cl)c1F | 2.9
CC(=O)Nc1ccc(C)cc1C | 1.46
CC(=O)Nc1ccc(Cl)cc1[N+](=O)[O-] | 1.78
CC(=O)Nc1ccccc1-c1ccccc1 | 2.02
COc1ccc(C)c(OC)c1 | 2.76
CC(=O)Nc1cc(Cl)c(Cl)c(Cl)c1 | 3.76
CC(=O)Nc1ccc(Cl)cc1Cl | 2.18
CC(C)c1ccccc1[N+](=O)[O-] | 3.34

SMILES | logP
CC(=O)Nc1ccc(OC(F)(F)F)cc1 | 2.62
COc1ccccc1F | 2.14
C=CCOc1cc(NC(C)=O)c(F)cc1Cl | 2.76
N#Cc1ccccc1C#N | 0.99
CCc1ccccc1OC | 3.18
CC(=O)Nc1ccc(C)cc1[N+](=O)[O-] | 1.49
CC(=O)Nc1c([N+](=O)[O-])cccc1[N+](=O)[O-] | 0.56
CC(=O)Nc1cc(Cl)ccc1C | 1.85
COc1cccc(Cl)c1C(N)=O | 0.59
NC(=O)c1c(F)cccc1Br | 0.63
O=[N+]([O-])c1ccc(Cl)cc1[N+](=O)[O-] | 2.18
CC(=O)Nc1ccc(C)c(C)c1C | 1.76
CC(=O)Nc1ccc(C)c(C)c1 | 2.1
CC(=O)Nc1cc(F)cc(C(F)(F)F)c1Cl | 2.86
CC(=O)Nc1ccc(Oc2ccccn2)cc1 | 1.57
CC(=O)Nc1c(C)cccc1C | 1.07
CC(=O)Nc1ccccc1I | 1.62
COc1cccc([N+](=O)[O-])c1C | 2.68
Cc1cccc(Cl)c1C(N)=O | 0.89
CC(=O)Nc1cccc(Cl)c1Cl | 2.09
NC(=O)c1c(Cl)cccc1Br | 1

From the SangsterLogP compilation
